Test results published in US10112907B2, “Substituted indazoles for treating tendon and/or ligament injuries” (NOVARTIS AG, priority 2016, dated 2018).
Like-named read-outs stand apart in the source and are kept apart here.

What was measured:
[1] = tested on: Scleraxis (Scx) gene expression in rat tail tendon fascicles; test: Ex vivo assay, Scx mRNA in tendon fascicles (qPCR); format: cell-based, Sprague Dawley rat
[2] = tested on: Tenomodulin (Tnmd) gene expression in rat tail tendon fascicles; test: Ex vivo assay, Tnmd mRNA in tendon fascicles (qPCR); format: cell-based, Sprague Dawley rat
[3] = molecular target: recombinant human Jak2 (aa808-1132) (Homo sapiens (Human), UniProt O60674); test: Kinase selectivity panel, substrate peptide phosphorylation (Caliper); format: biochemical
[4] = tested on: collagen type I (Col1a2) gene expression in rat tail tendon fascicles; test: Ex vivo assay, Col1a2 mRNA in tendon fascicles (qPCR); format: cell-based, Sprague Dawley rat
[5] = tested on: Scleraxis (Scx) gene transcriptional activation in TT-D6 Scx-luciferase (ScxL) cell line; test: SCX-LUC in vitro assay (Scx-luciferase reporter); format: cell-based; settings: Mus musculus
[6] = molecular target: recombinant human Jak1 (aa 866-1154) (Homo sapiens (Human), UniProt P23458); test: Kinase selectivity panel, substrate peptide phosphorylation (Caliper); format: biochemical
Sequence of recombinant human Jak1 (aa 866-1154) (P23458 866-1154): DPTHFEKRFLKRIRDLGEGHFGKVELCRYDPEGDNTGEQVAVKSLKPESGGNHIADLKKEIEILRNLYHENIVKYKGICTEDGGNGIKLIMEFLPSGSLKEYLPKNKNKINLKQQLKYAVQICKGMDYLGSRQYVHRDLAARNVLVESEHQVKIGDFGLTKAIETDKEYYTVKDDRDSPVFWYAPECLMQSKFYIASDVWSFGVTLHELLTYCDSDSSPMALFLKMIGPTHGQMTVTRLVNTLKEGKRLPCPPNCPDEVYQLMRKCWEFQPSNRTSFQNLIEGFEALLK

[7] = molecular target: recombinant human Tyk2 (aa888-1187) (Homo sapiens (Human), UniProt P29597); test: as above; format: biochemical; settings: 45 uM ATP
Sequence of recombinant human Tyk2 (aa888-1187) (P29597 888-1187): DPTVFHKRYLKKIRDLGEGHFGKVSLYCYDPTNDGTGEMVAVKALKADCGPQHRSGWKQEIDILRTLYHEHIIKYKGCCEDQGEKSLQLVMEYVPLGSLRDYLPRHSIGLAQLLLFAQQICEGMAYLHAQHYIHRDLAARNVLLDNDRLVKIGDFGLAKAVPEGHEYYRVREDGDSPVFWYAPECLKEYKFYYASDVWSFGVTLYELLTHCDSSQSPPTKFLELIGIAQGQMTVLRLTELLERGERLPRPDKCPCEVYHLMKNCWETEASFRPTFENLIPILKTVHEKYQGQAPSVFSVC

[8] = molecular target: recombinant human Jak3 (aa811-1124) (Homo sapiens (Human), UniProt P52333); format: biochemical
Sequence of recombinant human Jak3 (aa811-1124) (P52333 811-1124): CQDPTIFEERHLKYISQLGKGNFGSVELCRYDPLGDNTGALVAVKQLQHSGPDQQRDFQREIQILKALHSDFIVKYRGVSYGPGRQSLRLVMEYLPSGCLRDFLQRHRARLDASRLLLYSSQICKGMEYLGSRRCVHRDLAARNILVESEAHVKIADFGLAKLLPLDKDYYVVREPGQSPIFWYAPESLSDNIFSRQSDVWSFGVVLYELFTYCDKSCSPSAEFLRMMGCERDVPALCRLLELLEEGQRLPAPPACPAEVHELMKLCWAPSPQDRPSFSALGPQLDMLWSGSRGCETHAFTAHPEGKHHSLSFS

[9] = read-out: Ex vivo SCX (EC50 uM)
[10] = read-out: Ex vivo Tnmd (EC50 uM)
[11] = read-out: Ex vivo Col1a2 (EC50 uM)
[12] = 96 h, Table 3, four days, read-out: Ex vivo Scx (EC50 μM)
[13] = 96 h, Table 3, four days, read-out: Ex vivo Tnmd (EC50 μM)
[14] = 96 h, Table 3, four days, read-out: Ex vivo Col1a2 (EC50 μM)
[15] = 96 h, Table 3, four days, read-out: Scx-Luc (EC50 μM)
[16] = Table 1, read-out: Ex vivo SCX (EC50 uM)
[17] = Table 1, read-out: Ex vivo Tnmd (EC50 uM)
[18] = Table 1, read-out: Ex vivo Col1a2 (EC50 uM)
[19] = Table 1, read-out: Scx-Luc (EC50 uM)

Compound	EC50 [1, 12] [µM]	EC50 [2, 13] [µM]	EC50 [4, 14] [µM]	EC50 [5, 15] [µM]	also measured
CC[C@@](C)(Nc1ccnc(-c2c[nH]c3ncccc23)n1)C(=O)NCC(F)(F)F [reference compound]	–	–	–	–	EC50 [1, 9]: 1.65 µM; EC50 [2, 10]: 1.77 µM; IC50 [3]: 0.13 µM; EC50 [4, 11]: 0.88 µM; EC50 ([5]; read-out: Scx-Luc (EC50 uM)): 0.03 µM; IC50 ([6]; 45 uM ATP): 0.02 µM
Cc1cc(S(=O)(=O)N2CCC[C@H]2CO)ccc1-c1ccc2[nH]nc(N)c2c1C [Example 19, (S)-(1-((4-(3-amino-4-methyl-1H-indazol-5-yl)-3-methylphenyl)sulfonyl)pyrrolidin-2-yl)methanol]	10	10	10	0.431	–
CS(=O)(=O)NCc1nc2cnc3[nH]ccc3c2n1[C@@H]1C[C@H]2CC[C@@H]1C2 [reference compound]	–	–	–	–	EC50 [1, 16]: 3.22 µM; EC50 [2, 17]: 4.57 µM; IC50 [7]: 0.14 µM; IC50 [8]: 0.95 µM; IC50 [3]: 0.19 µM; EC50 [4, 18]: 3.76 µM; EC50 [5, 19]: 0.18 µM
C[C@@H](O)c1nc2cnc3[nH]ccc3c2n1[C@H]1CCCOC1 [reference compound]	–	–	–	–	EC50 [1, 16]: 3.31 µM; EC50 [2, 17]: 4.19 µM; EC50 [4, 18]: 4.32 µM; EC50 [5, 19]: 0.82 µM
N#Cc1ccc(COc2ccc(-c3cccc4nc(NC(=O)C5CC5)nn34)cc2)cn1 [reference compound]	–	–	–	–	EC50 [1, 16]: 5.77 µM; EC50 [2, 17]: 1.31 µM; IC50 [7]: 0.11 µM; IC50 [8]: 0.38 µM; IC50 [3]: 0.03 µM; EC50 [4, 18]: 0.9 µM; EC50 [5, 19]: 0.22 µM; IC50 [6]: 0.001 µM
C[C@@H](O)c1nc2cnc3[nH]ccc3c2n1[C@H]1CC[C@H](C#N)CC1 [reference compound]	–	–	–	–	EC50 [1, 16]: 4.27 µM; EC50 [2, 17]: 6.38 µM; EC50 [4, 18]: 6.62 µM; EC50 ([5]; read-out: Scx-Luc (EC50 uM)): 2.69 µM
Cc1cc(S(=O)(=O)NC2CC(O)(Cc3ccccc3)C2)ccc1-c1ccc2[nH]nc(N)c2c1C (stereo not drawn) [Example 51, 4-(3-amino-4-methyl-1H-indazol-5-yl)-N-(3-benzyl-3-hydroxycyclobutyl)-3-methylbenzenesulfonamide]	6.98	6.8	6.39	1.58	–
Cc1cc(S(=O)(=O)N[C@@H]2CCCC[C@H]2O)ccc1-c1ccc2[nH]nc(N)c2c1C [Example 16, 4-(3-amino-4-methyl-1H-indazol-5-yl)-N-((1R,2R)-2-hydroxycyclohexyl)-3-methylbenzenesulfonamide]	1.75	0.447	0.557	0.638	–
Cc1cc(S(=O)(=O)N2CC(F)(F)C2)ccc1-c1ccc2[nH]nc(N)c2c1C [Example 78, 5-(4-((3,3-difluoroazetidin-1-yl)sulfonyl)-2-methylphenyl)-4-methyl-1H-indazol-3-amine]	4.57	1.89	1.16	2.1	–
Cc1cc(S(=O)(=O)N2CC[C@H](O)C2)ccc1-c1ccc2[nH]nc(N)c2c1C [Example 5, (S)-1-((4-(3-amino-4-methyl-1H-indazol-5-yl)-3-methylphenyl)sulfonyl)pyrrolidin-3-ol]	3.62	1.6	2.63	0.275	–
COc1c(-c2ccc(S(=O)(=O)N[C@@H]3CCC[C@@H]3O)cc2C)ccc2[nH]nc(N)c12 [Example 73, 4-(3-amino-4-methoxy-1H-indazol-5-yl)-N-((1R,2S)-2-hydroxycyclopentyl)-3-methylbenzenesulfonamide]	5.23	6.51	3.77	0.632	–
Cc1cc(S(=O)(=O)N[C@H]2C[C@](O)(C(F)(F)F)C2)ccc1-c1ccc2[nH]nc(N)c2c1Cl [Example 37, 4-(3-amino-4-chloro-1H-indazol-5-yl)-N-((1s,3s)-3-hydroxy-3-(trifluoromethyl)cyclobutyl)-3-methylbenzenesulfonamide]	0.996	1.69	1.82	0.227	–
Cc1cc(S(=O)(=O)N[C@H]2C[C@@](C)(O)C2)ccc1-c1ccc2[nH]nc(N)c2c1C [Example 40, 4-(3-amino-4-methyl-1H-indazol-5-yl)-N-((1s,3s)-3-hydroxy-3-methylcyclobutyl)-3-methylbenzenesulfonamide]	2.69	2.92	1.82	0.988	–
Cc1cc(S(=O)(=O)NC2CCOCC2)ccc1-c1ccc2[nH]nc(N)c2c1C [Example 21, 4-(3-amino-4-methyl-1H-indazol-5-yl)-3-methyl-N-(tetrahydro-2H-pyran-4-yl)benzenesulfonamide]	3.7	6.64	5.32	1.26	–
N#CC[C@H](C1CCCC1)n1cc(-c2ncnc3[nH]ccc23)cn1 [reference compound]	–	–	–	–	EC50 [1, 9]: 3.13 µM; EC50 [2, 10]: 0.74 µM; EC50 [4, 11]: 2.64 µM; EC50 ([5]; read-out: Scx-Luc (EC50 uM)): 0.12 µM
Nc1n[nH]c2ccc(-c3ccc(S(=O)(=O)N[C@@H]4CCC[C@@H]4O)cc3Cl)c(Cl)c12 [Example 69, 4-(3-amino-4-chloro-1H-indazol-5-yl)-3-chloro-N-((1R,2S)-2-hydroxycyclopentyl)benzenesulfonamide]	1.05	3.84	1.48	0.148	–
Cc1cc(S(=O)(=O)N2CCC(O)CC2)ccc1-c1ccc2[nH]nc(N)c2c1C [Example 14, 1-((4-(3-amino-4-methyl-1H-indazol-5-yl)-3-methylphenyl)sulfonyl)piperidin-4-ol]	7.28	6.97	2.64	3.92	–
N#CCNC(=O)c1ccc(-c2ccnc(Nc3ccc(N4CCOCC4)cc3)n2)cc1 [reference compound]	–	–	–	–	EC50 [1, 16]: 3.92 µM; EC50 [2, 17]: 3.27 µM; EC50 [4, 18]: 4.67 µM; EC50 [5, 19]: 0.12 µM
Cc1cc(S(=O)(=O)N[C@H]2C[C@](O)(C(F)(F)F)C2)ccc1-c1ccc2[nH]nc(N)c2c1C [Example 31, 4-(3-amino-4-methyl-1H-indazol-5-yl)-N-((1s,3s)-3-hydroxy-3-(trifluoromethyl)cyclobutyl)-3-methylbenzenesulfonamide]	5.54	3.77	4.18	0.126	–
Cc1cc(S(=O)(=O)N[C@@H]2CCC[C@@H]2O)ccc1-c1ccc2[nH]nc(N)c2c1C [Example 18, 4-(3-amino-4-methyl-1H-indazol-5-yl)-N-((1R,2S)-2-hydroxycyclopentyl)-3-methylbenzenesulfonamide]	2.52	1.06	2.53	0.468	–
C1=C/COCc2cc(ccc2OCCN2CCCC2)Nc2nccc(n2)-c2cccc(c2)COC/1 [reference compound]	–	–	–	–	EC50 [1, 16]: 3.32 µM; EC50 [2, 17]: 6.71 µM; EC50 [4, 18]: 3.11 µM; EC50 ([5]; read-out: Scx-Luc (EC50 uM)): 1.06 µM
Cc1cc(S(=O)(=O)N[C@H]2C[C@@H](O)C2)ccc1-c1ccc2[nH]nc(N)c2c1C [Example 12, 4-(3-amino-4-methyl-1H-indazol-5-yl)-N-((1s,3s)-3-hydroxycyclobutyl)-3-methylbenzenesulfonamide]	1.73	10	10	2.21	–
Cc1cc(S(=O)(=O)NC2CCC(F)(F)CC2)ccc1-c1ccc2[nH]nc(N)c2c1C [Example 43, 4-(3-amino-4-methyl-1H-indazol-5-yl)-N-(4,4-difluorocyclohexyl)-3-methylbenzenesulfonamide]	3.37	4.87	3.45	0.696	–
CCS(=O)(=O)N1CC(CC#N)(n2cc(-c3ncnc4[nH]ccc34)cn2)C1	–	–	–	–	IC50 [7]: 0.03 µM
